From patent US5994340A, “Azetidinone derivatives as β-lactamase inhibitors” (SynPhar Laboratories, Inc., priority 1997, dated 1999)
Counter-ions that a name gives are not always drawn.

How the values were obtained:
[1] = molecular target: cephalosporinase from P. aeruginosa (Pseudomonas aeruginosa, UniProt P24735); experiment: β-Lactamase inhibitory activity, spectrophotometric rate assay at 490 nm with nitrocefin as substrate; format: biochemical
Protocol: The inhibitory activities of present compounds (β-lactamase inhibitors) against cephalosporinase from P. aeruginosa was measured by spectrophotometric rate assay using 490 nm and using nitrocefin as a substrate (J. Antimicrob. Chemother., vol. 28, pp 775-776, 1991).

P. aeruginosa AU-10 = experiment: MIC of ceftazidime, microbroth dilution; format: cell-based; details: Pseudomonas aeruginosa, AU10; ceftazidime alone, 18 h
Protocol: (§1) The MICs of the antibiotics (e.g., ceftazidime) alone, the MICs of ceftazidime in combination with reference compounds particularly […] (Ref. compd. I) and the MICs of the β-lactamase inhibitors (10 μg/ml) of the present invention in combination with ceftazidime were determined with the same β-lactamase producing bacteria. After incubation in Mueller-Hinton Broth (Difco) at 37° C. for 18 h, the bacterial suspension was diluted and about 10^5 CFU/ml was applied to the drug-containing Mueller-Hinton Broth in each well of 96 well plate. The MICs were recorded after 18 h of incubation at 37° C. on the lowest combinations of drug that inhibited visible growth of bacteria.

P. aeruginosa CT-122 = experiment: MIC of ceftazidime, microbroth dilution; format: cell-based; details: Pseudomonas aeruginosa, CT122; ceftazidime alone, 18 h
Protocol: as §1

P. aeruginosa M2297 = experiment: MIC of ceftazidime, microbroth dilution; format: cell-based; details: Pseudomonas aeruginosa, ceftazidime alone, 18 h
Protocol: as §1

P. aeruginosa CT-137 = experiment: MIC of ceftazidime, microbroth dilution; format: cell-based; details: Pseudomonas aeruginosa, CT137; ceftazidime alone, 18 h
Protocol: as §1

P. aeruginosa CT-144 = experiment: MIC of ceftazidime, microbroth dilution; format: cell-based; details: Pseudomonas aeruginosa, CT144; ceftazidime alone, 18 h
Protocol: as §1

P. aeruginosa 46220 DR-2 = experiment: MIC of ceftazidime, microbroth dilution; format: cell-based; details: Pseudomonas aeruginosa, 46220DR2; ceftazidime alone, 18 h
Protocol: as §1

P. aeruginosa AU-5 = experiment: MIC of ceftazidime, microbroth dilution; format: cell-based; details: Pseudomonas aeruginosa, AU5; ceftazidime alone, 18 h
Protocol: as §1

[2] = test system: P. aeruginosa sp 2439 Wt.; experiment: MIC of ceftazidime, microbroth dilution; format: cell-based; details: Pseudomonas aeruginosa, SP2439WT.; ceftazidime alone, 18 h
Protocol: as §1

P. aeruginosa 46017 = experiment: MIC of ceftazidime, microbroth dilution; format: cell-based; details: Pseudomonas aeruginosa, ceftazidime alone, 18 h
Protocol: as §1

M. morganii 36010 = experiment: MIC of ceftazidime, microbroth dilution; format: cell-based; details: Morganella morganii, ceftazidime alone, 18 h
Protocol: as §1

P. aeruginosa L46004 = experiment: MIC of ceftazidime, microbroth dilution; format: cell-based; details: Pseudomonas aeruginosa, L46004, 18 h, read-out: MIC of ceftazidime alone
Protocol: (§2) […]. After incubation in Mueller-Hinton Broth (Difco) at 37° C. for 18 h, the bacterial suspension was diluted and about 10^5 CFU/ml was applied to the drug-containing Mueller-Hinton Broth in each well of 96 well plate. The MICs were recorded after 18 h of incubation at 37° C. on the lowest combinations of drug that inhibited visible growth of bacteria.

C. freundii CT-76 = experiment: MIC of ceftazidime, microbroth dilution; format: cell-based; details: Citrobacter freundii, CT76, 18 h, read-out: MIC of ceftazidime alone
Protocol: as §2

E. aerogenes 41006 = experiment: MIC of ceftazidime, microbroth dilution; format: cell-based; details: Klebsiella aerogenes, 41006, 18 h, read-out: MIC of ceftazidime alone
Protocol: as §2

M. morganii 36014 = experiment: MIC of ceftazidime, microbroth dilution; format: cell-based; details: Morganella morganii, 36014, 18 h, read-out: MIC of ceftazidime alone
Protocol: as §2

P. aeruginosa M 1405 = experiment: MIC of ceftazidime, microbroth dilution; format: cell-based; details: Pseudomonas aeruginosa, M1405, 18 h, read-out: MIC of ceftazidime alone
Protocol: as §2

M. morganii 36030 = experiment: MIC of ceftazidime, microbroth dilution; format: cell-based; details: Morganella morganii, 36030, 18 h, read-out: MIC of ceftazidime alone
Protocol: as §2

E. aerogenes S-95 = experiment: MIC of ceftazidime, microbroth dilution; format: cell-based; details: Klebsiella aerogenes, S95, 18 h, read-out: MIC of ceftazidime alone
Protocol: as §2

P. aeruginosa 46012 = experiment: MIC of ceftazidime, microbroth dilution; format: cell-based; details: Pseudomonas aeruginosa, 46012, 18 h, read-out: MIC of ceftazidime alone
Protocol: as §2

C. freundii 44032 = experiment: MIC of ceftazidime, microbroth dilution; format: cell-based; details: Citrobacter freundii, 44032, 18 h, read-out: MIC of ceftazidime alone
Protocol: as §2

P. aeruginosa AU-1 = experiment: MIC of ceftazidime, microbroth dilution; format: cell-based; details: Pseudomonas aeruginosa, AU1, 18 h, read-out: MIC of ceftazidime alone
Protocol: as §2

P. aeruginosa AU-8 = experiment: MIC of ceftazidime, microbroth dilution; format: cell-based; details: Pseudomonas aeruginosa, AU8, 18 h, read-out: MIC of ceftazidime alone
Protocol: as §2

E. cloacae P 99 = experiment: microbe, parasite or virus in culture; format: cell-based; details: Enterobacter cloacae, P99, 18 h, read-out: MIC of ceftazidime alone
Protocol: (§3) After incubation in Mueller-Hinton Broth (Difco) at 37° C. for 18 h, the bacterial suspension was diluted and about 10^5 CFU/ml was applied to the drug-containing Mueller-Hinton Broth in each well of 96 well plate. The MICs were recorded after 18 h of incubation at 37° C. on the lowest combinations of drug that inhibited visible growth of bacteria.

E. cloacae MNH-2 = experiment: MIC of ceftazidime, microbroth dilution; format: cell-based; details: Enterobacter cloacae, MNH2, 18 h, read-out: MIC of ceftazidime alone
Protocol: as §3

E. cloacae 40054 = experiment: MIC of ceftazidime, microbroth dilution; format: cell-based; details: Enterobacter cloacae, 40054, 18 h, read-out: MIC of ceftazidime alone
Protocol: as §3

[3] = test system: P. aeruginosa 46220 DR-2-1; experiment: microbe, parasite or virus in culture; format: cell-based; details: Pseudomonas aeruginosa, 46220DR21, 18 h, read-out: MIC of ceftazidime alone
Protocol: as §2

[4] = test system: P. aeruginosa PAO 303 carb-4; experiment: microbe, parasite or virus in culture; format: cell-based; details: Pseudomonas aeruginosa, PAO303CARB4, 18 h, read-out: MIC of ceftazidime alone
Protocol: as §2

β-lactamase = details: suggested by several publications; cited from earlier work

Chain of cephalosporinase from P. aeruginosa (P24735 27-397): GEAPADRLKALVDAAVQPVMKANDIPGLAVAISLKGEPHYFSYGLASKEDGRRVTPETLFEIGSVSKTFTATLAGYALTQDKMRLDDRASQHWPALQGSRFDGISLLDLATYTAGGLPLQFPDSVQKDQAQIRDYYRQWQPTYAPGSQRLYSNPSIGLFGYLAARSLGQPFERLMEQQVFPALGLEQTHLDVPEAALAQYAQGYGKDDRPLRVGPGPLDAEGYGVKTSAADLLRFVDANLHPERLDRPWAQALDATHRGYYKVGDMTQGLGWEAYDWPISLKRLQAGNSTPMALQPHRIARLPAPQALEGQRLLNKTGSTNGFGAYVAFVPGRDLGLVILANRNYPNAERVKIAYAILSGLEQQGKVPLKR

`C[C@H]1[C@H](NC(=O)/C(=N/OCCNCCN)c2cccs2)C(=O)N1S(=O)(=O)O` [Compound 7] showed an IC50 [1] of 80 nM.

In the case of `C[C@H]1[C@H](NC(=O)/C(=N/OCC(N)CN)c2cccs2)C(=O)N1S(=O)(=O)O` (some centres unmarked) [Compound 4], the IC50 [1] is reported as 65 nM.

In the case of `CC(C)(O/N=C(\C(=O)N[C@@H]1C(=O)N2C(C(=O)[O-])=C(C[n+]3ccccc3)CS[C@H]12)c1csc(N)n1)C(=O)O` [ceftazidime], the MIC (P. aeruginosa AU-10) is reported as > 32 µg/mL, the MIC (P. aeruginosa CT-122) is reported as 16 µg/mL and the MIC (P. aeruginosa M2297) is reported as > 32 µg/mL. For the same compound, the MIC (P. aeruginosa CT-137) was 8 µg/mL, the MIC (P. aeruginosa CT-144) was 32 µg/mL and the MIC (P. aeruginosa 46220 DR-2) was 16 µg/mL. For the same compound, the MIC (P. aeruginosa AU-5) was > 32 µg/mL, the MIC [2] was > 32 µg/mL and the MIC (P. aeruginosa 46017) was > 32 µg/mL. For the same compound, the MIC (M. morganii 36010) was > 32 µg/mL, the MIC (P. aeruginosa L46004) was > 32 µg/mL and the MIC (C. freundii CT-76) was > 32 µg/mL. The MIC (E. aerogenes 41006) was > 32 µg/mL, the MIC (M. morganii 36014) was > 32 µg/mL and the MIC (P. aeruginosa M 1405) was > 32 µg/mL. For the same compound, the MIC (M. morganii 36030) was > 32 µg/mL, the MIC (E. aerogenes S-95) was > 32 µg/mL and the MIC (P. aeruginosa 46012) was > 32 µg/mL. The MIC (C. freundii 44032) was > 32 µg/mL, the MIC (P. aeruginosa AU-1) was > 32 µg/mL and the MIC (P. aeruginosa AU-8) was > 32 µg/mL. For the same compound, the MIC (E. cloacae P 99) was > 32 µg/mL, the MIC (E. cloacae MNH-2) was > 32 µg/mL and the MIC (E. cloacae 40054) was > 32 µg/mL. For the same compound, the MIC [3] was > 32 µg/mL and the MIC [4] was 32 µg/mL.

`C[C@H]1[C@H](NC(=O)/C(=N/OC(CN)CNC(=N)N)c2cccs2)C(=O)N1S(=O)(=O)O` (some centres unmarked) [Compound 12] showed an IC50 [1] of 1090 nM.

In the case of `C[C@H]1[C@H](NC(=O)/C(=N\OC(C)(C)C(=O)O)c2csc(N)n2)C(=O)N1S(=O)(=O)O` [Reference Compound I, Aztreonam], the IC50 [1] is listed as 130 nM and the β-lactamase inhibitory properties (β-lactamase) is listed as “possesses β-lactamase inhibitory properties”.

Compound `C[C@H]1[C@H](NC(=O)/C(=N/OC[C@@H](N)CCN)c2cccs2)C(=O)N1S(=O)(=O)O` [Compound 5] has an IC50 [1] of 100 nM.

Work on `CC(CN)O/N=C(/C(=O)N[C@@H]1C(=O)N(S(=O)(=O)O)[C@H]1C)c1cccs1` (some centres unmarked) [Compound 11] yielded an IC50 [1] of 200 nM.

Work on `C[C@H]1[C@H](NC(=O)/C(=N/OCCN)c2cccs2)C(=O)N1S(=O)(=O)O` [Compound 1] yielded an IC50 [1] of 20 nM.

With `CC(N)CO/N=C(/C(=O)N[C@@H]1C(=O)N(S(=O)(=O)O)[C@H]1C)c1cccs1` (stereo partly drawn) [Compound 10, (3S)-trans-3-[(E)-2-(2-Thienyl-2-{(2-amino)-prop-1-oxyimino}acetamido]-4-methyl-2-oxoazetidine-1-sulfonic acid, inner salt] the IC50 [1] was 80 nM.

With `C[C@H]1[C@H](NC(=O)/C(=N/OCC(N)CO)c2cccs2)C(=O)N1S(=O)(=O)O` (stereo partly drawn) [Compound 9, (3S)-trans-3-[(E)-2-(2-Thienyl)-2-{1-hydroxy-2-amino-prop-3-oxyimino}acetamido]-4-methyl-2-oxoazetidine-1-sulfonic acid, inner salt] the IC50 [1] was 80 nM.

`C[C@H]1[C@H](NC(=O)/C(=N/OCCN)c2csc(N)n2)C(=O)N1S(=O)(=O)O` [Reference Compound II] showed an IC50 [1] of 800 nM.

In the case of `C[C@H]1[C@H](NC(=O)/C(=N/OC(CN)CN)c2cccs2)C(=O)N1S(=O)(=O)O` [Compound 3, (3S)-trans-3-[(E)-2-(2-Thienyl)-2-{1,3-diamino-prop-2-oxyimino}acetamido]-4-methyl-2-oxoazetidine-1-sulfonic acid, triflate salt], the IC50 [1] is reported as 400 nM.

`C[C@H]1[C@H](NC(=O)/C(=N/OC(CN)CO)c2cccs2)C(=O)N1S(=O)(=O)O` (some centres unmarked) [Compound 8] gave an IC50 [1] of 300 nM.

For `C[C@H]1[C@H](NC(=O)/C(=N/OC[C@H](N)CCN)c2cccs2)C(=O)N1S(=O)(=O)O` [Compound 6], the IC50 [1] was 100 nM.

In the case of `C[C@H]1[C@H](NC(=O)/C(=N/OCCCN)c2cccs2)C(=O)N1S(=O)(=O)O` [Compound 2], the IC50 [1] is reported as 20 nM.
